Laboratory results: patent US20060014709A1, “Drug or cosmetic” (priority 2002, published 2006)
Several values for one entry are separate records, joined by “and”; a condition that tells them apart may be missing. Equal entries are not always repeated.

System: male SD rats, obstruction-released kidney (glomerular lesions and tubulointerstitial lesions)
Experiment: Obstruction release model after complete obstruction of unilateral ureter for 14 days (Example 2-2)
Assay type: in vivo
Parameters: key to Tubulointerstitial lesions: level of lesions: summed lesion score; + = 1, ++ = 2, +++ = 3; ≤6.5 improved
Conditions: rat, 30 mg/kg subcutaneously
Source text: That is, the rat was laparotomized under anesthesia with ether and left ureter was ligated with 7-0 Nylon at the height of the margin of lower pole of kidney to close the abdomen. On the 14th day after obstruction, the obstruction was released and urinary passage was reconstructed using a cuff. Thus, after 14 days, the part of ligated obstructed ureter was resected, a polyethylene tube of 25 gages (manufactured by Nippon Sherwood) was used as a cuff and inserted into and retained at the lumen from the cut end of the lower normal ureter, then the cuff was also retained in the expanded upper ureter and each of them was ligated and fixed by 7-0 Nylon to reconstruct the urinary passage. At the same time, the right kidney at the opposite side was excised. After the release of the obstruction, body weight was measured, blood was drawn on the 2nd day, 5th day and 7th day from the release to measure serum creatinine, then the rat was killed under anesthesia and the left obstruction-released kidney was excised.
An in vivo biological test was carried out for the γ-lactone derivative according to the present invention using this model. Bulk powder of a test compound was dissolved in sterile physiological saline together with gum arabic, and concentrations of the test compound and gum arabic were adjusted to 30 mg/mL and 5% respectively. The preparation was administered orally or subcutaneously injected at the dose of 30 mg/kg or 3 mg/kg every day. The administration was conducted for the total 21 days of the obstructed period for 14 days and after release of the obstruction for 7 days.
For cell surface markers of leukocyte cells which infiltrate the obstruction-released kidney, ED1, CD11b (ED8), CD5 and CD2 were used. […] For CD5^+, a number of not less than 20 per glomerulus was considered as positive. For glomerular lesions, which was characterized by Bowman's capsule wall, glomerular hyalinosis, dilation of urinary space pole and hypertrophy of parietal cells, 50 glomeruli were evaluated to obtain a proportion of pathologic glomeruli. For tubulointerstitial lesions, levels of the lesions were represented by qualifying hyperplasia of tubular basement membrane, tubular enlargement and atrophy and interstitial fibrosis. Scoring was as follows: + gets 1-point as a light lesion; ++ gets 2-point as a moderate lesion; and +++ gets 3-point as a severe lesion. Levels of cell infiltration were evaluated qualitatively according to the above three-point scale. For glomerular lesions, when a proportion of lesioned glomeruli was decreased to not more than 20%, and for tubulointerstitial lesions, when a score of the lesions was not more than 6.5, it was considered as improved.
Numbers of cells positive for CD11b (ED8), CD2 and CD5 were compared by means of immunopathology, and CD11b^+CD2^+ macrophages were considered as regeneration-promoting macrophages in glomeruli and CD11b^−CD2^+CD5+ macrophages were considered as regeneration-promoting macrophages to tubulointerstitial lesions, and herewith, it was estimated whether each cell group is quantitatively dominant or not.

In the case of `O=C1OC(Cl)(C(=O)OCc2ccccc2)c2ccccc21` (stereo not drawn) [compound (I-3), 1-chloro-3-oxo-1,3-dihydroisobenzofuran-1-carboxylic acid benzyl ester], the “cases in which regeneration-promoting CD11b^+CD2^+ macrophages were predominant in glomeruli” value is reported as “three of four cases”, the “cases in which regeneration-promoting CD11b^−CD2^+CD5+ macrophages were predominant in tubulointerstitial lesions” value is reported as “three of four cases” and the “difference in serum creatinine” value is reported as “no difference”. For the same compound, the “pathological improvement of glomerular lesions (cases)” value was “all four cases”, the “pathological improvement of tubulointerstitial lesions (cases)” value was “two of four cases” and the “Coincidence of two regeneration macrophages being positive” value (one value per animal, 30 mg/kg) was “Coincident”. For the same compound, the “Degree of cell infiltration” value (one value per animal, 30 mg/kg) was “+ and +++”, the “Number of regeneration CD11b^+CD2^+ macrophages to glomerular lesions: number of positive cells per glomerulus CD11b^+CD2^+” value (one value per animal, 30 mg/kg) was 4.3 cells per glomerulus and 1.8 cells per glomerulus (2×) and 0.5 cells per glomerulus and the “Number of regeneration CD11b^−CD2^+CD5^+ macrophages to tubulointerstitial lesions: number of positive cells in five fields of 200× magnification, CD5^+” value (one value per animal, 30 mg/kg) was 77 cells in five fields of 200× m and 25 cells in five fields of 200× m and 60 cells in five fields of 200× m and 20 cells in five fields of 200× m. For the same compound, the “Number of regeneration CD11b^−CD2^+CD5^+ macrophages to tubulointerstitial lesions: number of positive cells in five fields of 200× magnification, CD11b^+” value (one value per animal, 30 mg/kg) was 62 cells in five fields of 200× m and 53 cells in five fields of 200× m and 14 cells in five fields of 200× m and 22 cells in five fields of 200× m, the “Regeneration macrophages to glomerular lesions, Determination Increase +” value (one value per animal, 30 mg/kg) was “+ (a case of existing not less than one positive cell per glomerulus was considered as positive (+))” and the Serum creatinine (one value per animal, 30 mg/kg) was 2.8 mg/dL and 1.4 mg/dL and 2.1 mg/dL and 1.7 mg/dL. For the same compound, the “Tubulointerstitial lesions: level of lesions” value (one value per animal, 30 mg/kg) was 6.5 and 3.5 and 7.0 and 8.5, the “Glomerular lesions: proportion of lesioned glomeruli (%)” value (one value per animal, 50 glomeruli evaluated) was <1% and the “Regeneration CD11b^−CD2^+CD5^+ macrophages to tubulointerstitial lesions, Determination Increase +” value (one value per animal, CD11b^+ not more than 60 and CD5^+ not less than 20, 30 mg/kg) was “+ (For CD5^+, a number of not less than 20 per glomerulus was considered as positive)”.
